US10265329B2, “Altering steroid metabolism for treatment of steroid-dependent disease” (THE CLEVELAND CLINIC FOUNDATION, priority 2015, dated 2019)

Legend:
[1] = Abi metabolites in sera of patients with CRPC treated with Abi acetate; type: in vivo, human; details: patients undergoing treatment with Abi acetate
Procedure: Patient serum collection and drug extraction. Twelve patients with CRPC undergoing treatment with Abi acetate were consented under an Institutional Review Board—approved protocol (Case 7813). Blood was collected using Vacutainer Plus serum blood collection tubes (#BD367814, Becton Dickenson, Franklin Lakes, N.J.). Blood was collected between 2 and 14 hours after the 1000 mg daily dose of Abi acetate was administered. Blood was allowed to clot and tubes were centrifuged at 2500 RPM for 10 minutes. Serum aliquots were frozen at −80° C. until processing. Drug metabolites and internal standard (d4-cortisol, CDN isotopes Pointe-Claire, Quebec Canada) were extracted from 200 μL of patient serum with methyl tert-butyl ether (Sigma Aldrich, St. Louis, Mo.), evaporated under a stream of nitrogen gas and reconstituted in methanol prior to mass spectrometry analysis.
Patient serum analysis. Blood was obtained from prostate cancer patients with consent under a protocol approved by the Cleveland Clinic Institutional Review Board. Samples were analyzed on a ultra high-performance liquid chromatography station (Shimadzu, Kyoto, Japan) with a DGU-20A3R degasser, 2 LC-30AD pumps, a SIL-30AC autosampler, a CTO-10A column oven and a CBM-20A system controller in tandem with a QTRAP 5500 mass spectrometer (AB Sciex, Framingham, Mass.). […]

3βHSD = target: T1, 3βHSD (Homo sapiens, UniProt P14060); assay: Xenograft metabolism: [3H]-DHEA to AD in minced xenograft tumors; details: LNCaP and VCaP xenografts, 0.1-10 μM
T1 construct: endogenous in cells; host or cells: LNCaP, VCaP
T1 sequence (P14060 2-373 limits assumed): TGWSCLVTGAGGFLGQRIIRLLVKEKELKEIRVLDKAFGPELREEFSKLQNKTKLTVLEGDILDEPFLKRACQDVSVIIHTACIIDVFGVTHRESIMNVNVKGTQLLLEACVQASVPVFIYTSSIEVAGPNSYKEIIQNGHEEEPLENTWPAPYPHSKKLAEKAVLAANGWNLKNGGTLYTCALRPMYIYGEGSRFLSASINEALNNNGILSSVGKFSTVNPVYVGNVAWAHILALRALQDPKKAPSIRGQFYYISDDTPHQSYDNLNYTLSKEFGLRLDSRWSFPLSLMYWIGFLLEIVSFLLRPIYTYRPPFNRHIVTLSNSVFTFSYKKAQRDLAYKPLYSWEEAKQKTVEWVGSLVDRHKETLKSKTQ
Procedure: Cell Line Metabolism: Cells were seeded and incubated in 12-well plates with 0.2 million cells/well for ˜24 h and then incubated with a mixture of radioactive ([^3H]-labeled) and non-radioactive androgens (final concentration, 100 nM; ˜1,000,000 cpm/well; PerkinElmer, Waltham, Mass.) at 37° C. Aliquots of medium were collected at the indicated times. Collected medium was treated with 1,000 units of β-glucuronidase (Helix pomatia; Sigma-Aldrich) at 65° C. for 2 h, extracted with 860 μL ethyl acetate:isooctane (1:1), and concentrated under nitrogen gas. Xenograft Metabolism: 10^7 LNCaP or VCaP cells were injected subcutaneously with Matrigel into surgically orchiectomized NSG mice that were implanted with 5 mg 90-day sustained-release DHEA pellets (Innovative Research of American, Sarasota, Fla.). […] Each xenograft was analyzed in triplicate in at least three independent experiments. […]
Dried samples were reconstituted in 50% methanol and injected into the HPLC. […] Alternatively, dried samples were applied to plastic-backed silica gel plates and separated by thin-layer chromatography (TLC) using a mobile phase of 3:1 chloroform:ethyl acetate, followed by exposure of the plates to a phosphorimager screen and quantitated with a Storm model 860 phosphorimager (Applied Biosystems, Foster City, Calif.). […]

[2] = test system: AR chromatin occupancy on PSA, TMPRSS2 and FKBP5 regulatory elements; assay: AR chromatin occupancy ChIP assay in LNCaP cells; type: cell-based, human; details: 3 h
Procedure: LNCaP cells were serum-starved for at least 48 h and treated with indicated drugs and DHT for 3 h. A ChIP assay was performed with an anti-AR antibody (Santa Cruz, sc-816) as described previously. Li et al., Proc Natl Acad Sci USA. 108:3116-3123 (2011). All of the precipitated DNA samples were quantified by qPCR and normalized to input DNA. All ChIP experiments were performed at least three times. Primers used for ChIP experiments are from experiments previously described. Evaul et al., Endocrinology, 151:3514-3520 (2010).

With `C[C@]12CCC(=O)C=C1CC[C@@H]1[C@@H]2CC[C@]2(C)C(c3cccnc3)=CC[C@@H]12` [Compound D4A, 17-(3-Pyridyl)androsta-4,16-dien-3-one] the “detection in sera of patients with CRPC” value [1] was “detectable”, the “potency relative to Abi in blocking conversion from DHEA by 3βHSD to AD” value (3βHSD) was 10 fold and the “inhibition of DHT-induced AR chromatin occupancy” value [2] was “superior to Abi and somewhat lower than enzalutamide”.
